# Reference: patent US6573260B1, “Cycloalkyl-substituted aminomethylpyrrolidine derivatives” (Daiichi Pharmaceutical Co., Ltd., priority 1998, dated 2003)
# Read-outs that look alike come from different tables or passages of the source.
# Assays:
# Assay in all cases: antibacterial activity (MIC), standard method of the Japan Society of Chemotherapy
# Format in all cases: cell-based
# [1] = system: E. coli, NIHJ
# Procedure: (§1) The antibacterial activity of each compound of the present invention was measured in accordance with the standard method specified by the Japan Society of Chemotherapy, with the results shown in the following Table 2 as MIC values (μg/ml). In this connection, MIC values of levofloxacin (LVFX) and ciprofloxacin (CPEX) are also shown for the sake of comparison with the MIC values of the compounds of the present invention.
# [2] = system: E. faecalis, ATCC 19433
# Procedure: as §1
# [3] = system: K. pneumoniae TYPE 1
# Procedure: as §1
# [4] = system: PS. aeruginosa, 32121
# Procedure: as §1
# [5] = system: Pr. vulgaris, 08601
# Procedure: as §1
# [6] = system: Ps. aeruginosa, 32104
# Procedure: as §1
# [7] = system: S. aureus, 870307
# Procedure: as §1
# [8] = system: S. aureus, FDA 209P
# Procedure: as §1
# [9] = system: S. epidermidis, 56500
# Procedure: as §1
# [10] = system: S. flexneri, 2A 5503
# Procedure: as §1
# [11] = system: Ser. marcescens, 10100
# Procedure: as §1
# [12] = system: Str. pneumoniae, J24
# Procedure: as §1
# [13] = system: Str. pyogenes, G-36
# Procedure: as §1
# [14] = system: X. maltophilia, IID 1275
# Procedure: as §1
# [15] = Escherichia coli, read-out: MIC
# [16] = Enterococcus faecalis, ATCC19433, read-out: MIC
# [17] = Klebsiella pneumoniae, TYPE1, read-out: MIC
# [18] = Pseudomonas aeruginosa, read-out: MIC
# [19] = Proteus vulgaris, read-out: MIC
# [20] = Staphylococcus aureus, read-out: MIC
# [21] = Staphylococcus aureus, FDA209P, read-out: MIC
# [22] = Staphylococcus epidermidis, read-out: MIC
# [23] = Shigella flexneri, 2A5503, read-out: MIC
# [24] = Serratia marcescens, read-out: MIC
# [25] = Streptococcus pneumoniae, read-out: MIC
# [26] = Streptococcus pyogenes, G36, read-out: MIC
# [27] = Stenotrophomonas maltophilia, IID1275, read-out: MIC
Structure (SMILES),MIC [1],MIC [2] [mg/L],MIC [3] [mg/L],MIC [4] [mg/L],MIC [5] [mg/L],MIC [6] [mg/L],MIC [7] [mg/L],MIC [8],MIC [9],MIC [10],MIC [11] [mg/L],MIC [12],MIC [13],MIC [14] [mg/L],"MIC [1, 15] [mg/L]","MIC [2, 16] [mg/L]","MIC [3, 17] [mg/L]","MIC [4, 18] [mg/L]","MIC [5, 19] [mg/L]","MIC [6, 18] [mg/L]",further results
COc1c(N2CCC(C(N)C3CC3)C2)ccc2c(=O)c(C(=O)O)cn(C3CC3)c12 (stereo not drawn) [compound 8],0.006 mg/L,0.05,0.1,0.2,0.05,0.39,0.2,0.006 mg/L,0.025 mg/L,0.1 mg/L,0.2,0.006 mg/L,0.013 mg/L,0.2,–,–,–,–,–,–,–
"O=C(O)c1cn(C2CC2)c2cc(N3CCNCC3)c(F)cc2c1=O [CPFX, ciprofloxacin, reference compound]",–,–,–,–,–,–,–,–,–,–,–,–,–,–,≤ 0.003,0.78,0.025,0.025,≤ 0.003,0.05,"MIC [7, 20]: 3.13 mg/L; MIC [8, 21]: 0.1 mg/L; MIC [9, 22]: 0.2 mg/L; MIC [10, 23]: 0.006 mg/L; MIC [11, 24]: 0.025 mg/L; MIC [12, 25]: 0.1 mg/L; MIC [13, 26]: 1.56 mg/L; MIC [14, 27]: 0.78 mg/L"
COc1c(N2CCC(C(N)C3CC3)C2)c(F)cc2c(=O)c(C(=O)O)cn(C3CC3F)c12 (stereo not drawn) [compound 6],≦0.003 μg/ml,0.025,0.05,0.05,0.013,0.1,0.1,≦0.003 μg/ml,0.006 mg/L,0.006 mg/L,0.1,≦0.003 μg/ml,≦0.003 μg/ml,0.2,–,–,–,–,–,–,–
Cc1c(N2CCC(C(N)C3CC3)C2)c(F)c(N)c2c(=O)c(C(=O)O)cn(C3CC3F)c12 (stereo not drawn) [compound 7],≦0.003 μg/ml,0.013,0.025,0.025,0.013,0.05,0.025,≦0.003 μg/ml,≦0.003 μg/ml,≦0.003 μg/ml,0.05,≦0.003 μg/ml,≦0.003 μg/ml,0.05,–,–,–,–,–,–,–
Nc1c(F)c(N2CCC(C(N)C3CC3)C2)c(F)c2c1c(=O)c(C(=O)O)cn2C1CC1F (stereo not drawn) [compound 5],≦0.003 μg/ml,0.013,0.013,0.025,0.013,0.05,0.025,≦0.003 μg/ml,≦0.003 μg/ml,≦0.003 μg/ml,0.025,≦0.003 μg/ml,≦0.003 μg/ml,0.05,–,–,–,–,–,–,–
"C[C@H]1COc2c(N3CCN(C)CC3)c(F)cc3c(=O)c(C(=O)O)cn1c23 [LVFX, levofloxacin, reference compound]",–,–,–,–,–,–,–,–,–,–,–,–,–,–,0.013,0.78,0.1,0.1,0.13,0.2,"MIC [7, 20]: > 6.25 mg/L; MIC [8, 21]: 0.2 mg/L; MIC [9, 22]: 0.39 mg/L; MIC [10, 23]: 0.025 mg/L; MIC [11, 24]: 0.1 mg/L; MIC [12, 25]: 0.78 mg/L; MIC [13, 26]: 0.2 mg/L; MIC [14, 27]: 0.39 mg/L"
